Laboratory results published in patent US11725036B2, “Modified lipidated relaxin B chain peptides and their therapeutic use” (Sanofi, priority 2018, dated 2023).
Values after ≈ are worked out from the molar mass of the structure shown. Like-named read-outs stand apart in the source and are kept apart here. Starred links: 1 amine or outer side, 2 acyl side, 3 side chain; linkers in the order of their positions; H or OH if unused. Non-standard residues stand in square brackets, D forms with d. Residues, ends and D or L forms follow the SMILES beside them. Groups on a side chain read outwards from the residue. *: point of attachment. X5 = CCCCCCCCCCCCCCCC(=O)N[C@@H](CCC(=O)N[C@@H](CCC(=O)N[C@@H](CCC(=O)NCCCOCCOCCOCCCNC(=O)CCC(=O)NCCCOCCOCCOCCCNC(=O)CCC(=O)NCCCOCCOCCOCCCNC(=O)CCC(=O)NCCCOCCOCCOCCCN*)C(=O)O)C(=O)O)C(=O)O; γGlu = O=C(O)[C@H](CCC(=O)[*:2])N[*:1]; Palmitoyl = CCCCCCCCCCCCCCCC(=O)*; Suc = O=C(CCC(=O)[*:2])[*:1]; AEEA = NCCOCCOCC(=O)O; Aib = CC(C)(N)C(=O)O

What was measured:
in vivo = assay: in vivo; parameters: species or system Sprague Dawley rats; conditions: rat, iv, 1 mg/kg
Method: Prior to the testing of a peptide batch, its purity (HPLC-UV) was determined. Dose was corrected for presence of salts, solvent and purity. Bioanalytical screening method for quantification of peptides in rat: Sprague Dawley rats were dosed with study peptide at a dose of 1 mg/kg intravenously (i.v.) or 3 mg/kg subcutaneously (s.c.) as a solution in PBS (0.2 mg/ml and 0.6 mg/ml respectively). Blood samples were collected after: 0.083, 0.25, 0.5, 1, 2, 4, 8, 24, 48 and 72 h (i.v. route) and 0.25, 0.5, 1, 2, 4, 6, 8, 10, 24, 48 and 72 h (s.c route) post application. Plasma samples were analyzed after protein precipitation via liquid chromatography mass spectrometry (LC/MS). PK parameters and half-life were calculated using Phoenix 64 (WinNonlin 6.4)-Pharsight (Certara™) (non-compartment model). Values below the limit of quantification (BLQ) were replaced by zero for subsequent calculations and PK analysis. T½: in-vivo half-life, time required for test compound plasma concentration to be divided by two during the PK experiment. C0: Extrapolated test compound plasma concentration at t=0 time point (i.v. route). Cmax: maximal test compound plasma concentration at the indicated time point (s.c. route). Tmax: Time point where Cmax was attained. F %: s.c. vs i.v. bioavailability, dose-corrected area under curve (AUC) s.c. route divided by AUC i.v.

RXFP1 = biological target: T1, RXFP1 (Homo sapiens, UniProt Q9HBX9); assay: OVCAR5 cAMP assay (HTRF); format: cell-based; conditions: for EC50: OVCAR 5 cells expressing endogenous RXFP1, cAMP readout; for Emax: OVCAR 5 cells, maximal cAMP relative to H2-relaxin
T1 construct: OVCAR5 cells expressing endogenous RXFP1; endogenous in cells; host or cells: OVCAR5
T1 sequence (Q9HBX9 1-757): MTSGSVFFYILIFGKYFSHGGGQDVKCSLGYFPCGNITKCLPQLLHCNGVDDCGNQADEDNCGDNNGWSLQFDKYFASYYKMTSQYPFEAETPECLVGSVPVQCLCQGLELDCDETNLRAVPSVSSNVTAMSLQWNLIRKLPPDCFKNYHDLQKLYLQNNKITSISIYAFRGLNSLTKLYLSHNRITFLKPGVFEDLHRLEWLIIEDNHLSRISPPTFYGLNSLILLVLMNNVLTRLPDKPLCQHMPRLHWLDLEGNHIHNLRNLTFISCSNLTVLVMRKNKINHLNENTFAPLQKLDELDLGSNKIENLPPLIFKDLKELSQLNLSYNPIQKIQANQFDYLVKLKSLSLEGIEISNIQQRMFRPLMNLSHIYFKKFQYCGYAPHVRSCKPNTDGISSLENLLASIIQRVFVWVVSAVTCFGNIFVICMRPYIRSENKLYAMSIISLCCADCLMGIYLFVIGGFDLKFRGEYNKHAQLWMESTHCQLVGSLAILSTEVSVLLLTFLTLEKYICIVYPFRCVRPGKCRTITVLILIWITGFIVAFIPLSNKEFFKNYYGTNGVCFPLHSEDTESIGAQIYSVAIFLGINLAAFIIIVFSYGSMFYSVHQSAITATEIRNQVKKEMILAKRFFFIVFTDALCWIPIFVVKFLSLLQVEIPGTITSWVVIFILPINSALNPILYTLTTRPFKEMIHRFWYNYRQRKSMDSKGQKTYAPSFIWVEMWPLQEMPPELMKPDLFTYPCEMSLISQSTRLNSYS
Procedure, shortened: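 Endogenous RXFP1 in OVCAR5 cells, pretreated 40 min at 37° C with 1 mM IBMX, then exposed to increasing peptide concentrations in serum-free medium for 30 min at 37° C. cAMP read by HTRF; EC50 by variable-slope sigmoidal fit, Emax as % of H2-relaxin maximal cAMP in same run.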

[1] = Solubility testing in buffer; format: physicochemical; conditions: target solubility 10.0 mg/ml
Method: Prior to the testing of solubility of a peptide batch, its purity (HPLC-UV) was determined.
Acetate Buffer 50 mM pH4.5: 0.75 g C2H3C02Na,3H2O (Sigma S7545)+0.35 ml CH3CO2H 100% solution dissolved in Millipore water, adjusted to pH with diluted (1:1) CH3CO2H and diluted to 250 ml with Millipore water.
In a 4 ml Ependorph vial, an accurately weighed sample of compound was diluted in study media to obtain target concentration of 2, 6 or 10 mg/ml of pure compound. The sample vials were shacked (rock 'roll shaker) for ˜19 h. 300 μL aliquots were filtered through a Millipore “Solvinert” plate (0.45 μm-PTFE hydrophilic).
pH was measured with a micro electrode
Waters Acquity UPLC System with DAD detector
Column: Waters Peptide Column CSH C18 (130 Å; 1.7 μm; 50*2.1 mm)
Column temperature: 60° C.
Full loop (about 5 μL)—overfill factor 5
Weak et Strong wash: H2O/ACN (75/25; V/V); Seal wash: H2O/IsOH (95/5; V/V). Mobile phase:
Solvent A: 0.05% TFA in H2O; Solvent B: 0.035% TFA in CH3CN
Gradient: from 0 to 12 min B=2% to 60%, from 12 to 14 min B=60% to 100%. Column washing 100% B 1 min, column equilibration 2% B 2.5 min.
UV detector: wavelength: 220 nm.

[2] = acetate buffer 50 mM pH 4.5, read-out: Solubility Acetate buffer pH 4.5
[3] = phosphate buffer 50 mM pH 7.4, read-out: Solubility phosphate buffer pH 7.4

Molecule | C0 (in vivo) | T½ (h), in-vivo half-life (in vivo) | EC50 (RXFP1) | Emax (RXFP1) | solubility [1, 2] | solubility [1, 3]
H2-Relaxin: 6-kDa peptidic hormone of 53 amino acids; A chain (SEQ ID NO: 100) and B chain (SEQ ID NO: 101) cross-linked by disulfide bonds | 870 nM | 0.46 h | – | – | – | –
CCCCCCCCCCCCCCCC(=O)N[C@@H](CCC(=O)N[C@@H](CCC(=O)N[C@@H](CCC(=O)NCCCOCCOCCOCCCNC(=O)CCC(=O)NCCCOCCOCCOCCCNC(=O)CCC(=O)NCCCOCCOCCOCCCNC(=O)CCC(=O)NCCCOCCOCCOCCCNC(=O)CCC(=O)NCCCC[C@H](NC(=O)CNC(=O)[C@H](CCC(=O)O)NC(=O)[C@@H](NC(=O)C(C)(C)NC(=O)[C@@H](NC(=O)[C@H](CCCCNC(C)=O)NC(=O)[C@H](C)NC(=O)[C@H](CCCNC(=N)N)NC(=O)[C@@H](NC(=O)[C@H](CCCCN)NC(=O)[C@H](CCC(=O)O)NC(=O)[C@H](CCCNC(=N)N)NC(=O)CNC(=O)[C@H](CCC(=O)O)NC(=O)[C@H](CC(C)C)NC(C)=O)C(C)C)[C@@H](C)CC)[C@@H](C)CC)C(=O)N[C@@H](CO)C(=O)N[C@H](C(=O)N[C@@H](Cc1c[nH]c2ccccc12)C(=O)N[C@@H](CO)C(=O)NC(C)(C)C(=O)N[C@@H](CCCNC(=N)N)C(=O)N[C@@H](CCCCN)C(=O)N[C@@H](CCCCNC(C)=O)C(N)=O)[C@@H](C)O)C(=O)O)C(=O)O)C(=O)O [compound 74] (Ac-LEGREKVRAK(Ac)I[Aib]IEGK([Suc-X5])STWS[Aib]RKK(Ac)-NH2) | – | – | 0.54 nM | 94% | 7390 µg/mL (≈ 1560 µM) | 8470 µg/mL (≈ 1790 µM)
CCCCCCCCCCCCCCCC(=O)N[C@@H](CCC(=O)N[C@@H](CCC(=O)N[C@@H](CCC(=O)NCCOCCOCC(=O)NCCOCCOCC(=O)NCCOCCOCC(=O)NCCOCCOCC(=O)NCCCC[C@H](NC(=O)CNC(=O)[C@H](CCC(=O)O)NC(=O)C(C)(C)NC(=O)C(C)(C)NC(=O)[C@@H](NC(=O)[C@H](CCCCNC(C)=O)NC(=O)[C@H](C)NC(=O)[C@H](CCCNC(=N)N)NC(=O)[C@@H](NC(=O)[C@H](CCCCN)NC(=O)[C@H](CCC(=O)O)NC(=O)[C@H](CCCNC(=N)N)NC(=O)CNC(=O)[C@H](CCC(=O)O)NC(=O)[C@H](CC(C)C)NC(C)=O)C(C)C)[C@@H](C)CC)C(=O)N[C@@H](CO)C(=O)N[C@H](C(=O)N[C@@H](Cc1c[nH]c2ccccc12)C(=O)N[C@@H](CO)C(=O)NC(C)(C)C(=O)N[C@@H](CCCNC(=N)N)C(=O)N[C@@H](CCCCN)C(=O)N[C@@H](CCCCNC(C)=O)C(N)=O)[C@@H](C)O)C(=O)O)C(=O)O)C(=O)O [compound 5] (Ac-LEGREKVRAK(Ac)I[Aib][Aib]EGK([AEEA-AEEA-AEEA-AEEA-γGlu-γGlu-γGlu-Palmitoyl])STWS[Aib]RKK(Ac)-NH2) | – | – | 9.1 nM | 85% | 6240 µg/mL (≈ 1530 µM) | 6410 µg/mL (≈ 1570 µM)
